For one compound, activity results are on record in doi:10.1101/2023.10.03.560722, “Drug Discovery in Low Data Regimes: Leveraging a Computational Pipeline for the Discovery of Novel SARS-CoV-2 Nsp14-MTase Inhibitors” (bioRxiv, 2024).

One test concerns the target T1, G9a (Homo sapiens, UniProt Q96KQ7).
T1 sequence (Q96KQ7 1-1210): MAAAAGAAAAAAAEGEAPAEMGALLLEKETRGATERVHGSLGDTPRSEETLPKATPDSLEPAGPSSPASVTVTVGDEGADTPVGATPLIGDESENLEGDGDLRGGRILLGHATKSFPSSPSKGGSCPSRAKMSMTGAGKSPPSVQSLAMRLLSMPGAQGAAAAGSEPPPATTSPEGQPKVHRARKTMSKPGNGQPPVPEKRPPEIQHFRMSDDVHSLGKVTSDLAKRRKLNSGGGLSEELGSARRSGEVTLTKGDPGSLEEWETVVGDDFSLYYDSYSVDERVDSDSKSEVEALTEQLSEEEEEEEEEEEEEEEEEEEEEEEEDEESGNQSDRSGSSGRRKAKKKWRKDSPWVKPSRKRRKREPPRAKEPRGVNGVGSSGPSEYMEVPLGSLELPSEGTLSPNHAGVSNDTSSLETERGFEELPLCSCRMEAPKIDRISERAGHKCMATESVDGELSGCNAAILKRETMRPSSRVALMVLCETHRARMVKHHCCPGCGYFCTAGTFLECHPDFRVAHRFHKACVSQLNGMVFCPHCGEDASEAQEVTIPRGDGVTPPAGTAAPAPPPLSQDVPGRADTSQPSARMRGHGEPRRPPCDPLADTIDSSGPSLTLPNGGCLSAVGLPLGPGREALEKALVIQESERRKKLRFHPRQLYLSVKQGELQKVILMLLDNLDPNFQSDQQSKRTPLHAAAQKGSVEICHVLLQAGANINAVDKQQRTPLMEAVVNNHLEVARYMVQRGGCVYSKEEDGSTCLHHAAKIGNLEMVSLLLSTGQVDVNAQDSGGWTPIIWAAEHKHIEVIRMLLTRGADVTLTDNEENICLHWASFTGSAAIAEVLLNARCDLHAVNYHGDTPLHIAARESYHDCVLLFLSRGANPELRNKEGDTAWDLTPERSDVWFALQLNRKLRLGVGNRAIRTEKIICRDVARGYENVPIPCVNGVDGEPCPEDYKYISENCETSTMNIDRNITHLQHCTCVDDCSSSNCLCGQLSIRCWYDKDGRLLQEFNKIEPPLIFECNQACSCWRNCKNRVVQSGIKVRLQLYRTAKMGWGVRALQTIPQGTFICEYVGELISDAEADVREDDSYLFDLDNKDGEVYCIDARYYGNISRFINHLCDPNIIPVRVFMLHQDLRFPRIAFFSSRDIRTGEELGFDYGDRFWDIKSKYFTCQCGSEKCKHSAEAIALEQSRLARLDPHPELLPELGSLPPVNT
The test is described as follows: human MTase selectivity panel. The format is biochemical.

The next test concerns the target T2, NSD3 (Homo sapiens, UniProt Q9BZ95).
T2 sequence (Q9BZ95 1-1437): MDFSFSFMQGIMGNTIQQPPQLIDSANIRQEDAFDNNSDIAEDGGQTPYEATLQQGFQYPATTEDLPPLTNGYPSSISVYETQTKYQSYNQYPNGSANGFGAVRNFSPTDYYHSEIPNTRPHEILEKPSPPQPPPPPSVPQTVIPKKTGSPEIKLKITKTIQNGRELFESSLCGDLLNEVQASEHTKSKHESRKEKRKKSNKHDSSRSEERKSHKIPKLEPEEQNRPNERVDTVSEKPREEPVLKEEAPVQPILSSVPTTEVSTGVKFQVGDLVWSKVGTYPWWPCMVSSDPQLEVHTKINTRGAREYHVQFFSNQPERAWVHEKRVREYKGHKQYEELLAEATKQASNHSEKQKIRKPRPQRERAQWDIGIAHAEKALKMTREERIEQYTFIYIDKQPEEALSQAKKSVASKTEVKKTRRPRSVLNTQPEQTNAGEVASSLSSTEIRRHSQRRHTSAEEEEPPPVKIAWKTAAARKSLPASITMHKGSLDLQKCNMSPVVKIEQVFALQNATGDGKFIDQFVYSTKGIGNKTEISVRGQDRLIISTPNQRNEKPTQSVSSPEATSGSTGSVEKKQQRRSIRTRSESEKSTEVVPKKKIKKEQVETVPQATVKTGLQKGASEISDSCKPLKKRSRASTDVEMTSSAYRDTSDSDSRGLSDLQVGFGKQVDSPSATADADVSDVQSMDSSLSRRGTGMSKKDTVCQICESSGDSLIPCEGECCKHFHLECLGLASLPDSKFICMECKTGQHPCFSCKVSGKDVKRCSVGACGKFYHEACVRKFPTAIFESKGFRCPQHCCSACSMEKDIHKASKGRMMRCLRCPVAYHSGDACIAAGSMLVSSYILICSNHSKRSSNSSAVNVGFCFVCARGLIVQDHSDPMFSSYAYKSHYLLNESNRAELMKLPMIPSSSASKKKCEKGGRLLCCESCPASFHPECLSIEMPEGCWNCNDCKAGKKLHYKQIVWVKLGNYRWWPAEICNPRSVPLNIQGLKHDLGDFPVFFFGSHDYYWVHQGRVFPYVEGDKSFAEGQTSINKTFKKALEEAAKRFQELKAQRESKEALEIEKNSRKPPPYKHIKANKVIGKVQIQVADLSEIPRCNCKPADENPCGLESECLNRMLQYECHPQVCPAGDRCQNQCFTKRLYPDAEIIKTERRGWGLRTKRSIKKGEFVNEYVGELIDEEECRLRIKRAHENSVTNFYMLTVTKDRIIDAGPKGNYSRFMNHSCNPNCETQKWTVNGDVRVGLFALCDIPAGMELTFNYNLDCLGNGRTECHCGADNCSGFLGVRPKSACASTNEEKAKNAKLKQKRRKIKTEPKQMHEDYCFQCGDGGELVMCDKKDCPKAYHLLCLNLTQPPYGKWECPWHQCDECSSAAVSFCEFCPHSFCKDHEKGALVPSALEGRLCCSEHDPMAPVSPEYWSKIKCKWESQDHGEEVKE
The test is described as follows: human MTase selectivity panel. In kind it is biochemical.

[1] abbreviates: average ± SD, read-out: Activity (%) at 10 µM Average.
[2] abbreviates: read-out: Activity (%) at 10 µM Replicate 1.
Where [3] appears, read: read-out: Activity (%) at 10 µM Replicate 2.
Where [4] appears, read: read-out: Activity (%) at 10 µM Replicate 3.

Read-outs that look alike come from different tables or passages of the source.

For the compound `Nc1ncnc2c1ncn2[C@@H]1O[C@H](CSCc2ccc(Cl)cc2)[C@@H](O)[C@H]1O` [NSC620333], the activity at 10 µM at G9a (setting [1]) was found to be 89 ± 9%; on G9a (setting [2]) it was 97%; at G9a (setting [3]), 79%; on G9a (setting [4]), 91%; on NSD3 (setting [1]) it was 110 ± 5%; on NSD3 (setting [2]), 112%. Besides, the values for the activity at 10 µM on NSD3 (setting [3]) and on NSD3 (setting [4]) were 104% and 115%, respectively.
